The results in this text go back to patent US12065443B2, “Compounds and pharmaceutical compositions thereof for the treatment of diseases” (priority 2017, dated 2024).

The term IC50 denotes the concentration that inhibits the measured activity by half.

Assay in all cases: biochemical
One test has as its target T1, SIK2 (Homo sapiens, UniProt Q9H0K1).
T1 construct: purchased ThermoFisher Scientific PV4792
To be noted: 33P radioactive SIK kinase assay, AMARA peptide, 10 μM ATP. How it is done:
(§1) The principle of the ^33P radioactive kinase assay consists in measuring the incorporated ^33P into the substrate AMARA peptide when phosphorylated by SIK1, SIK2 or SIK3 using [^33P]-g-ATP, which correlates with kinase activity.
(§2) 1% DMSO and 10 μM staurosporine final concentrations are used as negative and positive controls.
(§3) 11 μL of enzyme-substrate mixture is added on the assay plates. The reactions are started by adding 9 μL ATP mixture, consisting of non-labeled and ^33P-labeled ATP, on the assay plates.
(§4) The reactions are stopped by adding 25 μL phosphoric acid (150 mM) to the reactions.
(§5) After harvesting the kinase reactions, the filter plates are washed 6 times with phosphoric acid (75 mM). […] The top of the plates are sealed with TopSeal-A. Read-out is performed with a TopCount instrument (PerkinElmer Inc.).

A further test concerns the target T2, SIK3 (Homo sapiens, UniProt Q9Y2K2).
T2 construct: purchased SignalChem S12-11G-100
The protocol: as §1, §2, §3, §4, §5

In the next test the target is T3, SIK1 (Homo sapiens, UniProt P57059).
T3 construct: purchased Carna Biosciences 02-131
T3 sequence (P57059 whole entry): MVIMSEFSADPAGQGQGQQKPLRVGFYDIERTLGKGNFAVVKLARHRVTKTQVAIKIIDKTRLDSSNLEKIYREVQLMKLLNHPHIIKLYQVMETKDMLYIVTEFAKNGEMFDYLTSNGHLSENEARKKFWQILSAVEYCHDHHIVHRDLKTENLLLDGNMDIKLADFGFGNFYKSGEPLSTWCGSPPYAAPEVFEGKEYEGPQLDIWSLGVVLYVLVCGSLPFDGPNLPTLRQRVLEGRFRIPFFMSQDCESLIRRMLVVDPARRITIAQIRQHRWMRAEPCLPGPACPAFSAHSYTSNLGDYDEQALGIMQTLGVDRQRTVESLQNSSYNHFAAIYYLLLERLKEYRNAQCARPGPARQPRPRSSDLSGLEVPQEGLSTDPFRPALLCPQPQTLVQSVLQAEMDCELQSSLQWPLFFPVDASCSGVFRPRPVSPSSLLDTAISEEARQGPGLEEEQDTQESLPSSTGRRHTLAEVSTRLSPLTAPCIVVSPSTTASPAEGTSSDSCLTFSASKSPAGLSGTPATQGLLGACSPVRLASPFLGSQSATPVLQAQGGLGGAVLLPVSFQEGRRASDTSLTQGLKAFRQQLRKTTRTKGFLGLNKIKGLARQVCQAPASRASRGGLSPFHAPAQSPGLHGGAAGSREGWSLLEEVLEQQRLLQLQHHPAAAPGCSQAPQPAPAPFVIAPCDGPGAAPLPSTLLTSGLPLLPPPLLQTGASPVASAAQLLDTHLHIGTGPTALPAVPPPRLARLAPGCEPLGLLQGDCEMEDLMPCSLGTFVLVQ
To be noted: 33P radioactive SIK kinase assay, AMARA peptide, 10 μM ATP; read-out: SIK1 IC50. The protocol:
as §1, §2, §3, §4, §5

Molecules are shown by their SMILES.

T1 sequence (Q9H0K1 whole entry): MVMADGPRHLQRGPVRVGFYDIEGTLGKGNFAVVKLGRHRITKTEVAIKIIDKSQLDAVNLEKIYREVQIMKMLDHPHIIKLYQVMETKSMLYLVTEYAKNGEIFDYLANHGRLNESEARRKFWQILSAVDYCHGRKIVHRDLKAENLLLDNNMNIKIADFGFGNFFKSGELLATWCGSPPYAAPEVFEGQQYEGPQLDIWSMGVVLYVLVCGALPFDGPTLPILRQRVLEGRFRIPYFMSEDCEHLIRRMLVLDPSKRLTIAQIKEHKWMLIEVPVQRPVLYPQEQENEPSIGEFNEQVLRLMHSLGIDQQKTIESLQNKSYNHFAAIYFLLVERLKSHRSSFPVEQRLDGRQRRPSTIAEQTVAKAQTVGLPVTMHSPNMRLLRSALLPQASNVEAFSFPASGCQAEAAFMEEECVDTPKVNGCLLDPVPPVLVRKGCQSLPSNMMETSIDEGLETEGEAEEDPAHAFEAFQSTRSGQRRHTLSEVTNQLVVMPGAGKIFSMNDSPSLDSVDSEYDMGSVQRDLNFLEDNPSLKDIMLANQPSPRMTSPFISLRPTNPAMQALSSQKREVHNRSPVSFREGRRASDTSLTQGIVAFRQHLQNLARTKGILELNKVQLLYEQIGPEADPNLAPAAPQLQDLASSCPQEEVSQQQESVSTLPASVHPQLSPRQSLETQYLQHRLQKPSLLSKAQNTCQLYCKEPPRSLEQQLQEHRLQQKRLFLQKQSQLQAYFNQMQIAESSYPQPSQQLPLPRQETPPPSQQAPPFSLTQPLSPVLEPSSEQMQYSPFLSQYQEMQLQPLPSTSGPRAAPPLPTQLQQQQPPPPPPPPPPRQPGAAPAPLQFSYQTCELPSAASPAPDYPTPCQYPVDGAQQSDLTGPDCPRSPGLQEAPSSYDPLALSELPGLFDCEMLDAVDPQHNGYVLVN
T2 sequence (Q9Y2K2 whole entry): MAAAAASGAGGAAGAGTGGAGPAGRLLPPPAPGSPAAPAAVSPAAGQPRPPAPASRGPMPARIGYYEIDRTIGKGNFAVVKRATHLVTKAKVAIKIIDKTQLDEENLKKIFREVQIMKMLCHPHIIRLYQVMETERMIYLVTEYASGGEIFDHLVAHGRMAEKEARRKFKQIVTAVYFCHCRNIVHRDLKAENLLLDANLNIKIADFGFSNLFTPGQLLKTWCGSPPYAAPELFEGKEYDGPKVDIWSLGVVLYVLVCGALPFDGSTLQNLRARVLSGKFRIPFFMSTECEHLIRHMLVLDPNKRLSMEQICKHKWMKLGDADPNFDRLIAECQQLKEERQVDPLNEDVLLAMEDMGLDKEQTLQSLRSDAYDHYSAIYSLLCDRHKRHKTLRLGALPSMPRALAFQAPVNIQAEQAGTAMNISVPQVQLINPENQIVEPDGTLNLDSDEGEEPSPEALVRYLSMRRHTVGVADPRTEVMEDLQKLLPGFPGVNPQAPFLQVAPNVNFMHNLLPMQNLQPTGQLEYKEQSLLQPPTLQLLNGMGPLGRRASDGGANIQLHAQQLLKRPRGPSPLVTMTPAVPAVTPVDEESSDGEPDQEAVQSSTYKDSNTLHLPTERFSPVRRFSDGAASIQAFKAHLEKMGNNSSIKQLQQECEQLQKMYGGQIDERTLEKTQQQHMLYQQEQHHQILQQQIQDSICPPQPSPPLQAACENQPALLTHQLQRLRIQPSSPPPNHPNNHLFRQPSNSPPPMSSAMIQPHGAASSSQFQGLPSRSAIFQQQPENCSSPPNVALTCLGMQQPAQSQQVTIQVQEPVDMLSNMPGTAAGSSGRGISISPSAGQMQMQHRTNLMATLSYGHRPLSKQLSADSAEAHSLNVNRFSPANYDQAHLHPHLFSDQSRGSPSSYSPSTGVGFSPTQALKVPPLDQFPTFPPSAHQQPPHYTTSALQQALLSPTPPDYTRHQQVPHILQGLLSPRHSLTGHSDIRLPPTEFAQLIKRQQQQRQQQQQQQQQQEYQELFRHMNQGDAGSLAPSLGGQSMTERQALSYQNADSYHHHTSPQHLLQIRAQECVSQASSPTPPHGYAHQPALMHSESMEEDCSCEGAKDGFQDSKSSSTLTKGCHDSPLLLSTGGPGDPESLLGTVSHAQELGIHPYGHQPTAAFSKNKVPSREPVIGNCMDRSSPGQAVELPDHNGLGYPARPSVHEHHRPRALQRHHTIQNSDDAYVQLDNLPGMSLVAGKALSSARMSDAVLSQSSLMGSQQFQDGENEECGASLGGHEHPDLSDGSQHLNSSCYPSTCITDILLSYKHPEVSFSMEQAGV

In the case of `COc1cc(-c2cnc3cc(-c4cnn(C)c4)ccn23)cc(OC)c1C(=O)N1CCC(F)(F)CC1` [compound 212, (4,4-difluoro-1-piperidyl)-[2,6-dimethoxy-4-[7-(1-methylpyrazol-4-yl)imidazo[1,2-a]pyridin-3-yl]phenyl]methanone], the IC50 lay within 10 to 100 nM on SIK2, 100 to 500 nM against SIK3 and 100 to 500 nM on SIK1.
Turning to `COc1cc(-n2cnc3cc(-c4ccc(C#N)nc4)ccc32)cc(OC)c1C(=O)NCC(F)(F)F` [compound 36, 4-[5-(6-cyano-3-pyridyl)benzimidazol-1-yl]-2,6-dimethoxy-N-(2,2,2-trifluoroethyl)benzamide], the IC50 at SIK2 lay in the range of 10 to 100 nM; against SIK3, 10 to 100 nM; at SIK1, 100 to 500 nM.
As for `COc1cc(-n2cnc3cc(-c4cnn(C)c4)ccc32)cc(OC)c1C(=O)N1CC(OC)C1` [compound 190, [2,6-dimethoxy-4-[5-(1-methylpyrazol-4-yl)benzimidazol-1-yl]phenyl]-(3-methoxyazetidin-1-yl)methanone], the IC50 on SIK2 lay in the range of 10 to 100 nM; on SIK3 it was 100 to 500 nM; at SIK1 it was 10 to 100 nM.
With `COc1cc(-n2cnc3cc(-c4cnccn4)ccc32)cc(OC)c1C(=O)NCC(F)(F)F` [compound 128, 2,6-dimethoxy-4-(5-pyrazin-2-ylbenzimidazol-1-yl)-N-(2,2,2-trifluoroethyl)benzamide], the IC50 on SIK2 is greater than 500 nM; against SIK3 it was 100 to 500 nM; at SIK1, greater than 500 nM.
With `COc1cc(-c2cnc3cc(-c4cnn(C)c4)ccn23)cc(OC)c1C(=O)NC(C(C)C)C(F)(F)F` (stereo not drawn) [compound 200], the IC50 on SIK2, at SIK3 and at SIK1 was 10 to 100 nM throughout.
With `CCNC(=O)c1c(OC)cc(-n2cnc3cc(-c4noc(C)n4)ccc32)cc1OC(F)F` [compound 136, 2-(difluoromethoxy)-N-ethyl-6-methoxy-4-[5-(5-methyl-l,2,4-oxadiazol-3-yl)benzimidazol-1-yl]benzamide], the IC50 on SIK2, on SIK3 and on SIK1 was greater than 500 nM throughout.
Consider `COc1cc(-n2cnc3cc(-c4ccc(N)nc4)ccc32)cc(OC)c1C(=O)NCC(F)(F)F` [compound 38, 4-[5-(6-amino-3-pyridyl)benzimidazol-1-yl]-2,6-dimethoxy-N-(2,2,2-trifluoroethyl)benzamide], for which the IC50 at SIK2 lay in the range of 10 to 100 nM; against SIK3, 10 to 100 nM; at SIK1 it was 100 to 500 nM.
For the molecule `COc1cc(-c2cnc3cc(-c4cnc(N)nc4)ccn23)cc(OC)c1C(=O)NCC(F)(F)F` [compound 246, 4-[7-(2-aminopyrimidin-5-yl)imidazo[1,2-a]pyridin-3-yl]-2,6-dimethoxy-N-(2,2,2-trifluoroethyl)benzamide], the IC50 on SIK2 lay in the range of 10 to 100 nM; on SIK3, 0.01 to 10 nM; at SIK1, 10 to 100 nM.
For `COc1cc(-n2cnc3cc(-c4cnn(C)c4)ccc32)cc(OC)c1C(=O)N1CCC(F)CC1` [compound 197, [2,6-dimetlioxy-4-[5-(1-methylpyrazol-4-yl)benzimidazol-1-yl]phenyl]-(4-fluoro-1-piperidyl)methanone], the IC50 on SIK2, against SIK3 and on SIK1 was greater than 500 nM in each case.
For `COc1cc(-n2cnc3cc(-c4cnn(C)c4)ccc32)cc(OC)c1C(=O)N[C@H]1CCCC[C@@H]1O` [compound 164], the results for the IC50 on SIK2, against SIK3 and at SIK1 were 100 to 500 nM, greater than 500 nM and 100 to 500 nM, respectively.
Take `COc1cc(-n2cnc3cc(-c4cnn(C)c4)ccc32)cc(OC)c1C(=O)NC1CCC1` [compound 77, N-cyclobutyl-2,6-dimethoxy-4-[5-(1-methylpyrazol-4-yl)benzimidazol-1-yl]benzamide]: the IC50 on SIK2, at SIK3 and on SIK1 was 10 to 100 nM each time.
In the case of `COc1cc(-n2cnc3cc(-c4ccnnc4)ccc32)cc(OC)c1C(=O)NCC(F)(F)F` [compound 93, 2,6-dimethoxy-4-(5-pyridazin-4-ylbenzimidazol-1-yl)-N-(2,2,2-trifluoroethyl)benzamide], the IC50 on SIK2 fell in the range of 10 to 100 nM; on SIK3, 10 to 100 nM; on SIK1, 100 to 500 nM.
Consider `COc1cc(-c2cnc3cc(-c4ccnnc4)ccn23)cc(OC)c1C(=O)NCC(F)(F)F` [compound 247, 2,6-dimethoxy-4-(7-pyridazin-4-ylimidazo[1,2-a]pyridin-3-yl)-N-(2,2,2-trifluoroethyl)benzamide], for which the results for the IC50 at SIK2, on SIK3 and at SIK1 were 10 to 100 nM, 0.01 to 10 nM and 10 to 100 nM, respectively.
Turning to `COc1cc(-n2cnc3cc(-c4cnn(C)c4)ccc32)cc(OC)c1C(=O)N1CC(C)(O)C1` [compound 217, [2,6-dimethoxy-4-[5-(1-methylpyrazol-4-yl)benzimidazol-1-yl]phenyl]-(3-hydroxy-3-methyl-azetidin-1-yl)methanone], the IC50 on SIK2, on SIK3 and on SIK1 was 10 to 100 nM each time.
In the case of `COc1cc(-n2cnc3cc(-c4cncnc4)ccc32)cc(OC)c1C(=O)NCC(F)(F)F` [compound 104, 2,6-dimethoxy-4-(5-pyrimidin-5-ylbenzimidazol-1-yl)-N-(2,2,2-trifluoroethyl)benzamide], the IC50 was 100 to 500 nM at SIK2, 100 to 500 nM against SIK3 and greater than 500 nM at SIK1.
Take `COc1cc(-n2cnc3cc(-c4cnn(C)c4)ccc32)cc(OC)c1C(=O)NC1COC1` [compound 92, 2,6-dimethoxy-4-[5-(1-methylpyrazol-4-yl)benzimidazol-1-yl]-N-(oxetan-3-yl)benzamide]: the concentration for half-maximal inhibition (IC50) at SIK2, at SIK3 and at SIK1 was 10 to 100 nM each time.
Regarding `COc1cc(-n2cnc3cc(-c4cnn(C)c4)ccc32)cc(OC)c1C(=O)N1CC(CO)C1` [compound 183, [2,6-dimethoxy-4-[5-(1-methylpyrazol-4-yl)benzimidazol-1-yl]phenyl]-[3-(hydroxymethyl)azetidin-1-yl]methanone], the IC50 on SIK2, against SIK3 and on SIK1 was 100 to 500 nM each time.
Regarding `CCn1cc(-c2ccc3c(c2)ncn3-c2cc(OC)c(C(=O)NC3CCCC3)c(OC)c2)cn1` [compound 45, N-cyclopentyl-4-[5-(1-ethylpyrazol-4-yl)benzimidazol-1-yl]-2,6-dimethoxy-benzamide], the IC50 at SIK2, at SIK3 and at SIK1 was 10 to 100 nM throughout.
Regarding `CCNC(=O)c1c(OC)cc(-n2cnc3cc(-c4nnc(C)[nH]4)ccc32)cc1OC(F)F` [compound 150, 2-(difluoromethoxy)-N-ethyl-6-methoxy-4-[5-(5-methyl-4H-1,2,4-triazol-3-yl)benzimidazol-1-yl]benzamide], the IC50 on SIK2, on SIK3 and at SIK1 was greater than 500 nM in each case.
For the molecule `COc1cc(-n2cnc3cc(-c4cnn(C)c4)ccc32)cc(OC)c1C(=O)Nc1cnn(C)c1` [compound 83, 2,6-dimethoxy-N-(1-methylpyrazol-4-yl)-4-[5-(1-methylpyrazol-4-yl)benzimidazol-1-yl]benzamide], the IC50 at SIK2, against SIK3 and at SIK1 was 100 to 500 nM in each case.
For `COc1cc(-n2cnc3cc(-c4cnn(C)c4)ccc32)cc(OC)c1C(=O)NC1CCC[C@H]1O` (stereo in doubt) [compound 140, N-[(1R,2R)-2-hydroxycyclopentyl]-2,6-dimethoxy-4-[5-(1-methylpyrazol-4-yl)benzimidazol-1-yl]benzamide], the IC50 on SIK2, at SIK3 and on SIK1 was 10 to 100 nM in each case.
On to `COc1cc(-n2cnc3cc(-c4cnn(C)c4)ccc32)cc(OC)c1C(=O)N1CCC1c1ccccc1` (stereo not drawn) [compound 187, [2,6-dimethoxy-4-[5-(1-methylpyrazol-4-yl)benzimidazol-1-yl]phenyl]-(2-phenylazetidin-1-yl)methanone], for which the IC50 at SIK2, against SIK3 and at SIK1 was greater than 500 nM throughout.
`COc1cc(-n2cnc3cc(-c4cnn(C)c4)ccc32)cc(OC)c1C(=O)NC(C)(C)C(F)(F)F` [compound 68, 2,6-dimethoxy-4-[5-(1-methylpyrazol-4-yl)benzimidazol-1-yl]-N-(2,2,2-trifluoro-1,1-dimethyl-ethyl)benzamide]: the IC50 at SIK2 was greater than 500 nM; at SIK3, 100 to 500 nM; on SIK1 it was greater than 500 nM.
Consider `COc1cc(-n2cnc3cc(-n4cnc(C)n4)ccc32)cc(OC)c1C(=O)NCC(F)(F)F` [Cpd 166, 2,6-dimethoxy-4-[5-(3-methyl-1,2,4-triazol-1-yl)benzimidazol-1-yl]-N-(2,2,2-trifluoroethyl)benzamide], for which the IC50 at SIK2 was greater than 500 nM; on SIK3 it was 100 to 500 nM; on SIK1, greater than 500 nM.
`COc1cc(-c2cnc3cc(-c4cnn(C)c4)ccn23)cc(OC)c1C(=O)NC1CS(=O)(=O)C1` [compound 130, N-(1,1-dioxothietan-3-yl)-2.6-dimethoxy-4-[7-(l-methylpyrazol-4-yl)imidazo[1,2-a]pyridin-3-yl]benzamide]: the figures for the IC50 at SIK2, on SIK3 and on SIK1 were 0.01 to 10 nM, 10 to 100 nM and 10 to 100 nM, respectively.
Regarding `CCn1cc(-c2ccc3c(c2)ncn3-c2cc(OC)c(C(=O)N(C)CC(C)C)c(OC)c2)cn1` [compound 28, 4-[5-(1-ethylpyrazol-4-yl)benzimidazol-1-yl]-N-isobutyl-2,6-dimethoxy-N-methyl-benzamide], the IC50 on SIK2, at SIK3 and on SIK1 was greater than 500 nM each time.
